Measurements published in ChEMBL document CHEMBL4765227, “Hit to lead optimization of a series of N-[4-(1,3-benzothiazol-2-yl)phenyl]acetamides as monoacylglycerol lipase inhibitors with potential anticancer activity” (Eur J Med Chem, 2016).

How the values were obtained:
Format in all cases: functional
Details in all cases: read-out: GI
HL-60(TB) = experiment: Growth inhibition of human HL-60(TB) cells at 10 uM incubated for 48 hrs by sulforhodamine B assay relative to control
K562 = experiment: Growth inhibition of human K562 cells at 10 uM incubated for 48 hrs by sulforhodamine B assay relative to control
MOLT-4 = experiment: Growth inhibition of human MOLT-4 cells at 10 uM incubated for 48 hrs by sulforhodamine B assay relative to control
RPMI-8226 = experiment: Growth inhibition of human RPMI-8226 cells at 10 uM incubated for 48 hrs by sulforhodamine B assay relative to control
SR = experiment: Growth inhibition of human SR cells at 10 uM incubated for 48 hrs by sulforhodamine B assay relative to control
A549 = experiment: Growth inhibition of human A549/ATCC cells at 10 uM incubated for 48 hrs by sulforhodamine B assay relative to control
NCI-H226 = experiment: Growth inhibition of human NCI-H226 cells at 10 uM incubated for 48 hrs by sulforhodamine B assay relative to control
NCI-H23 = experiment: Growth inhibition of human NCI-H23 cells at 10 uM incubated for 48 hrs by sulforhodamine B assay relative to control
NCI-H322M = experiment: Growth inhibition of human NCI-H322M cells at 10 uM incubated for 48 hrs by sulforhodamine B assay relative to control
NCI-H522 = experiment: Growth inhibition of human NCI-H522 cells at 10 uM incubated for 48 hrs by sulforhodamine B assay relative to control
HCC 2998 = experiment: Growth inhibition of human HCC 2998 cells at 10 uM incubated for 48 hrs by sulforhodamine B assay relative to control
HT-29 = experiment: Growth inhibition of human HT-29 cells at 10 uM incubated for 48 hrs by sulforhodamine B assay relative to control
KM12 = experiment: Growth inhibition of human KM12 cells at 10 uM incubated for 48 hrs by sulforhodamine B assay relative to control
SF-268 = experiment: Growth inhibition of human SF-268 cells at 10 uM incubated for 48 hrs by sulforhodamine B assay relative to control
SF-295 = experiment: Growth inhibition of human SF-295 cells at 10 uM incubated for 48 hrs by sulforhodamine B assay relative to control
SF-539 = experiment: Growth inhibition of human SF-539 cells at 10 uM incubated for 48 hrs by sulforhodamine B assay relative to control
SNB-19 = experiment: Growth inhibition of human SNB-19 cells at 10 uM incubated for 48 hrs by sulforhodamine B assay relative to control
U-251 = experiment: Growth inhibition of human U-251 cells at 10 uM incubated for 48 hrs by sulforhodamine B assay relative to control
Malme-3M = experiment: Growth inhibition of human Malme-3M cells at 10 uM incubated for 48 hrs by sulforhodamine B assay relative to control
M14 = experiment: Growth inhibition of human M14 cells at 10 uM incubated for 48 hrs by sulforhodamine B assay relative to control
MDA-MB-435 = experiment: Growth inhibition of human MDA-MB-435 cells at 10 uM incubated for 48 hrs by sulforhodamine B assay relative to control
SK-MEL-5 = experiment: Growth inhibition of human SK-MEL-5 cells at 10 uM incubated for 48 hrs by sulforhodamine B assay relative to control
UACC-257 = experiment: Growth inhibition of human UACC-257 cells at 10 uM incubated for 48 hrs by sulforhodamine B assay relative to control
UACC-62 = experiment: Growth inhibition of human UACC-62 cells at 10 uM incubated for 48 hrs by sulforhodamine B assay relative to control
IGROV-1 = experiment: Growth inhibition of human IGROV-1 cells at 10 uM incubated for 48 hrs by sulforhodamine B assay relative to control
OVCAR-3 = experiment: Growth inhibition of human OVCAR-3 cells at 10 uM incubated for 48 hrs by sulforhodamine B assay relative to control
OVCAR-4 = experiment: Growth inhibition of human OVCAR-4 cells at 10 uM incubated for 48 hrs by sulforhodamine B assay relative to control
OVCAR-5 = experiment: Growth inhibition of human OVCAR-5 cells at 10 uM incubated for 48 hrs by sulforhodamine B assay relative to control
OVCAR-8 = experiment: Growth inhibition of human OVCAR-8 cells at 10 uM incubated for 48 hrs by sulforhodamine B assay relative to control
SK-OV-3 = experiment: Growth inhibition of human SK-OV-3 cells at 10 uM incubated for 48 hrs by sulforhodamine B assay relative to control
786-0 = experiment: Growth inhibition of human 786-0 cells at 10 uM incubated for 48 hrs by sulforhodamine B assay relative to control
ACHN = experiment: Growth inhibition of human ACHN cells at 10 uM incubated for 48 hrs by sulforhodamine B assay relative to control
RXF 393 = experiment: Growth inhibition of human RXF 393 cells at 10 uM incubated for 48 hrs by sulforhodamine B assay relative to control
SN12C = experiment: Growth inhibition of human SN12C cells at 10 uM incubated for 48 hrs by sulforhodamine B assay relative to control
TK-10 = experiment: Growth inhibition of human TK-10 cells at 10 uM incubated for 48 hrs by sulforhodamine B assay relative to control
UO-31 = experiment: Growth inhibition of human UO-31 cells at 10 uM incubated for 48 hrs by sulforhodamine B assay relative to control
PC-3 = experiment: Growth inhibition of human PC-3 cells at 10 uM incubated for 48 hrs by sulforhodamine B assay relative to control
DU-145 = experiment: Growth inhibition of human DU-145 cells at 10 uM incubated for 48 hrs by sulforhodamine B assay relative to control
MCF7 = experiment: Growth inhibition of human MCF7 cells at 10 uM incubated for 48 hrs by sulforhodamine B assay relative to control
MDA-MB-231 = experiment: Growth inhibition of human MDA-MB-231 cells at 10 uM incubated for 48 hrs by sulforhodamine B assay relative to control
Hs-578T = experiment: Growth inhibition of human Hs-578T cells at 10 uM incubated for 48 hrs by sulforhodamine B assay relative to control
BT-549 = experiment: Growth inhibition of human BT-549 cells at 10 uM incubated for 48 hrs by sulforhodamine B assay relative to control
T47D = experiment: Growth inhibition of human T47D cells at 10 uM incubated for 48 hrs by sulforhodamine B assay relative to control
MDA-MB-468 = experiment: Growth inhibition of human MDA-MB-468 cells at 10 uM incubated for 48 hrs by sulforhodamine B assay relative to control

`O=C(CNc1ccccc1)Nc1ccc(-c2nc3ccccc3s2)cc1` was tested, and the inhibition of growth at 10 µM (HL-60(TB)) was 11%, the inhibition of growth at 10 µM (K562) was 22.5% and the inhibition of growth at 10 µM (MOLT-4) was 84.5%. For the same compound, the inhibition of growth at 10 µM (RPMI-8226) was 12.5%, the inhibition of growth at 10 µM (SR) was 74.5% and the inhibition of growth at 10 µM (A549) was 9.72%. For the same compound, the inhibition of growth at 10 µM (NCI-H226) was 5.83%, the inhibition of growth at 10 µM (NCI-H23) was 11.9% and the inhibition of growth at 10 µM (NCI-H322M) was 12.9%. It also gave an inhibition of growth at 10 µM (NCI-H522) of 26%, an inhibition of growth at 10 µM (HCC 2998) of -16% and an inhibition of growth at 10 µM (HT-29) of 2%. The inhibition of growth at 10 µM (KM12) was 5.48%, the inhibition of growth at 10 µM (SF-268) was 12.1% and the inhibition of growth at 10 µM (SF-295) was 7.06%. The inhibition of growth at 10 µM (SF-539) was 12%, the inhibition of growth at 10 µM (SNB-19) was 8.22% and the inhibition of growth at 10 µM (U-251) was 14.8%. For the same compound, the inhibition of growth at 10 µM (Malme-3M) was 4.9%, the inhibition of growth at 10 µM (M14) was 12.9% and the inhibition of growth at 10 µM (MDA-MB-435) was 12.6%. For the same compound, the inhibition of growth at 10 µM (SK-MEL-5) was 22%, the inhibition of growth at 10 µM (UACC-257) was -1.98% and the inhibition of growth at 10 µM (UACC-62) was 23.5%. For the same compound, the inhibition of growth at 10 µM (IGROV-1) was 16.1%, the inhibition of growth at 10 µM (OVCAR-3) was 5.15% and the inhibition of growth at 10 µM (OVCAR-4) was 15.3%. For the same compound, the inhibition of growth at 10 µM (OVCAR-5) was -10.9%, the inhibition of growth at 10 µM (OVCAR-8) was 9.58% and the inhibition of growth at 10 µM (SK-OV-3) was -24.1%. It also gave an inhibition of growth at 10 µM (786-0) of 15.4%, an inhibition of growth at 10 µM (ACHN) of -2.46% and an inhibition of growth at 10 µM (RXF 393) of 5.43%. The inhibition of growth at 10 µM (SN12C) was 8.85%, the inhibition of growth at 10 µM (TK-10) was -17.9% and the inhibition of growth at 10 µM (UO-31) was 30.2%. It also gave an inhibition of growth at 10 µM (PC-3) of 10.1%, an inhibition of growth at 10 µM (DU-145) of 3.91% and an inhibition of growth at 10 µM (MCF7) of 53.2%. For the same compound, the inhibition of growth at 10 µM (MDA-MB-231) was -0.13%, the inhibition of growth at 10 µM (Hs-578T) was -8.46% and the inhibition of growth at 10 µM (BT-549) was 43.5%. The inhibition of growth at 10 µM (T47D) was 21.4% and the inhibition of growth at 10 µM (MDA-MB-468) was 29.5%.

Work on `O=C(Cn1c2ccccc2c2ccccc21)Nc1ccc(-c2nc3ccccc3s2)cc1` yielded an inhibition of growth at 10 µM (HL-60(TB)) of -3.61%, an inhibition of growth at 10 µM (K562) of 4.71% and an inhibition of growth at 10 µM (MOLT-4) of 5.92%. It also gave an inhibition of growth at 10 µM (RPMI-8226) of -18%, an inhibition of growth at 10 µM (SR) of 15.7% and an inhibition of growth at 10 µM (A549) of 0.89%. It also gave an inhibition of growth at 10 µM (NCI-H226) of 1.21%, an inhibition of growth at 10 µM (NCI-H23) of 6.54% and an inhibition of growth at 10 µM (NCI-H322M) of -5.2%. It also gave an inhibition of growth at 10 µM (NCI-H522) of 3.42%, an inhibition of growth at 10 µM (HCC 2998) of 0.28% and an inhibition of growth at 10 µM (HT-29) of -6.06%. It also gave an inhibition of growth at 10 µM (KM12) of 0.15%, an inhibition of growth at 10 µM (SF-268) of 6.55% and an inhibition of growth at 10 µM (SF-295) of 3.61%. For the same compound, the inhibition of growth at 10 µM (SF-539) was 4.12%, the inhibition of growth at 10 µM (SNB-19) was -4.51% and the inhibition of growth at 10 µM (U-251) was 6.01%. The inhibition of growth at 10 µM (Malme-3M) was 6.83%, the inhibition of growth at 10 µM (M14) was -14% and the inhibition of growth at 10 µM (MDA-MB-435) was -1.43%. It also gave an inhibition of growth at 10 µM (SK-MEL-5) of 6.47%, an inhibition of growth at 10 µM (UACC-257) of -1.24% and an inhibition of growth at 10 µM (UACC-62) of 4.66%. The inhibition of growth at 10 µM (IGROV-1) was 13.4%, the inhibition of growth at 10 µM (OVCAR-3) was -4.48% and the inhibition of growth at 10 µM (OVCAR-4) was -2.83%. The inhibition of growth at 10 µM (OVCAR-5) was 0.62%, the inhibition of growth at 10 µM (OVCAR-8) was -2.86% and the inhibition of growth at 10 µM (SK-OV-3) was -7.77%. It also gave an inhibition of growth at 10 µM (786-0) of -1.17%, an inhibition of growth at 10 µM (ACHN) of -4.15% and an inhibition of growth at 10 µM (RXF 393) of -10.8%. For the same compound, the inhibition of growth at 10 µM (SN12C) was -1.32%, the inhibition of growth at 10 µM (TK-10) was -1.97% and the inhibition of growth at 10 µM (UO-31) was 12.8%. It also gave an inhibition of growth at 10 µM (PC-3) of -4.16%, an inhibition of growth at 10 µM (DU-145) of -2.93% and an inhibition of growth at 10 µM (MCF7) of 67.4%. It also gave an inhibition of growth at 10 µM (MDA-MB-231) of 4.37%, an inhibition of growth at 10 µM (Hs-578T) of -14.2% and an inhibition of growth at 10 µM (BT-549) of -5.6%. For the same compound, the inhibition of growth at 10 µM (T47D) was 15.5% and the inhibition of growth at 10 µM (MDA-MB-468) was 83.4%.
